Laboratory results taken from patent US4863493A, “High purity acetylene gas” (Nichigo Acetylene Kabushiki Kaisha, priority 1987, dated 1989).

What was measured:
[1] = in DMF, at 25° C.; data from catalogue of NITTO CHEMICAL INDUSTRY CO., LTD.; cited from earlier work
[2] = Acetylene stripped from DMF saturated with acetylene on heating; assay type: physicochemical; conditions: heated to 0° C.
From the text: The amount of acetylene dissolved in a solvent depends on the temperature of the solvent. Usually increasing the temperature tends to decrease the solubility. […] As mentioned above, the terminology "stripped acetylene" is intended to refer to "acetylene stripped from a solvent".

Row | SMILES | Solubility [1] [l/l] | acetylene at S.T.P. stripped from 1 l of DMF ([2]; DMF saturated with acetylene at -40° C.) | acetylene at S.T.P. stripped from 1 l of DMF ([2]; DMF saturated with acetylene at -60° C.)
1 | [C-]#[O+] [CO] | 0.06 | – | –
2 | C#C [C2 H2, acetylene] | 31.4 | about 238 l | about 382 l
3 | [HH] [H2, hydrogen] | 0.04 | – | –
4 | O=C=O [CO2, carbon dioxide] | 4.5 | – | –
